Experimental data from ChEMBL document CHEMBL1152094, “Res-701-1, synthesis and a reevaluation of its effects on the endothelin receptors” (Bioorg Med Chem Lett, 1995).
Starred links: 1 amine or outer side, 2 acyl side, 3 side chain; linkers in the order of their positions; H or OH if unused. Non-standard residues stand in square brackets, D forms with d. Residues, ends and D or L forms follow the SMILES beside them. X1 = O=C([C@@H](N[*:1])C1c2ccccc2CCc2ccccc21)[*:2]

Legend:
[1] = target: T1, Endothelin receptor type B (Homo sapiens, UniProt P24530); assay: Binding affinity in Chinese hamster ovary (CHO) cells stably transfected with human endothelin B (ETB) receptor; assay type: cell-based
T1 sequence (P24530 whole entry): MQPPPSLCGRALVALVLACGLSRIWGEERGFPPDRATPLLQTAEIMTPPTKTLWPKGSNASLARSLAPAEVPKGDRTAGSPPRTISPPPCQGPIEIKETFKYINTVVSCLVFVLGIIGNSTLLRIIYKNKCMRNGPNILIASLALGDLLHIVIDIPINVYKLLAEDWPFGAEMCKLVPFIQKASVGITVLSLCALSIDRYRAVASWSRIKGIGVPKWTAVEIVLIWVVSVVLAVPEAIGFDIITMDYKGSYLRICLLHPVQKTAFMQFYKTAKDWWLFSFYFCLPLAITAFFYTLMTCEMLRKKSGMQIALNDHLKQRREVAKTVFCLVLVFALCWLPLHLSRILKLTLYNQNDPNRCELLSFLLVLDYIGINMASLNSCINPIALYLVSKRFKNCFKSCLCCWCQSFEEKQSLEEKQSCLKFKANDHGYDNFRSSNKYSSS

Endothelin-1 receptor = target: T2, Endothelin-1 receptor (Homo sapiens, UniProt P25101); assay: Binding affinity in LtK cells stably transfected with human endothelin A (ETA) receptor; assay type: cell-based
T2 sequence (P25101 whole entry): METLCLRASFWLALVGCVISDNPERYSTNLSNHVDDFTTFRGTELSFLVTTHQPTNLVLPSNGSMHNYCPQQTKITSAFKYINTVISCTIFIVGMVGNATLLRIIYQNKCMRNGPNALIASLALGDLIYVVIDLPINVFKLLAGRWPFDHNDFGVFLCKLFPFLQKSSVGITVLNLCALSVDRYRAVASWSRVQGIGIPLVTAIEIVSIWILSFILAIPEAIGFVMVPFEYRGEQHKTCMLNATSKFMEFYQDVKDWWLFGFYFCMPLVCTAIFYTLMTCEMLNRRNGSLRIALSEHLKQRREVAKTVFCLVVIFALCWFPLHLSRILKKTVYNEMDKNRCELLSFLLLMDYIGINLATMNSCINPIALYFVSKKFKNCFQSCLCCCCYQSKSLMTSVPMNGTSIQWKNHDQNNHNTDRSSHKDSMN

| SMILES | IC50 [1] | IC50 (Endothelin-1 receptor) |
| --- | --- | --- |
| C[C@@H]1NC(=O)[C@H]([C@@H](C)O)NC(=O)CNC(=O)[C@H](Cc2c[nH]cn2)NC(=O)[C@H](Cc2c[nH]c3ccccc23)NC(=O)[C@H](CC(N)=O)NC(=O)CNC(=O)C[C@@H](C(=O)N[C@@H](Cc2c[nH]c3ccccc23)C(=O)N[C@@H](Cc2ccccc2)C(=O)N[C@@H](Cc2ccccc2)C(=O)N[C@@H](CC(N)=O)C(=O)N[C@@H](Cc2ccc(O)cc2)C(=O)N[C@@H](Cc2ccc(O)cc2)C(=O)N[C@@H](Cc2c[nH]c3ccccc23)C(=O)O)NC(=O)[C@@H]2CCCN2C1=O (stereo in doubt; 1) | 0.01 µM | > 5 µM |
| C[C@@H]1NC(=O)[C@H]([C@@H](C)O)NC(=O)CNC(=O)[C@H](Cc2c[nH]cn2)NC(=O)[C@H](Cc2c[nH]c3ccccc23)NC(=O)[C@H](CC(N)=O)NC(=O)CNC(=O)C[C@@H](C(=O)N[C@@H](Cc2c[nH]c3ccccc23)C(=O)N[C@@H](Cc2ccccc2)C(=O)N[C@@H](Cc2ccccc2)C(=O)N[C@@H](CC(N)=O)C(=O)N[C@@H](Cc2ccc(O)cc2)C(=O)N[C@@H](Cc2ccc(O)cc2)C(=O)N[C@@H](Cc2c[nH]c3ccccc23)C(=O)O)NC(=O)[C@@H]2CCCN2C1=O (stereo in doubt; 2) | 6.5 µM | 7.8 µM |
| NC(=O)C[C@H](NC(=O)[C@H](Cc1ccccc1)NC(=O)[C@@H](N)Cc1ccccc1)C(=O)N[C@@H](Cc1ccc(O)cc1)C(=O)N[C@@H](Cc1ccc(O)cc1)C(=O)N[C@@H](Cc1c[nH]c2ccccc12)C(=O)O (H-FFNYYW-OH) | > 25 µM | > 25 µM |
| C[C@H](NC(=O)[C@@H](NC(=O)CNC(=O)[C@H](Cc1c[nH]cn1)NC(=O)[C@H](Cc1c[nH]c2ccccc12)NC(=O)[C@H](CC(N)=O)NC(=O)CN)[C@@H](C)O)C(=O)N1CCC[C@H]1C(=O)N[C@@H](CC(=O)O)C(=O)N[C@@H](Cc1c[nH]c2ccccc12)C(=O)N[C@@H](Cc1ccccc1)C(=O)N[C@@H](Cc1ccccc1)C(=O)N[C@@H](CC(N)=O)C(=O)N[C@@H](Cc1ccc(O)cc1)C(=O)N[C@@H](Cc1ccc(O)cc1)C(=O)N[C@@H](Cc1c[nH]c2ccccc12)C(=O)O | > 2.5 µM | > 2.5 µM |

Next, values leading:

| IC50 [1] | IC50 (Endothelin-1 receptor) | SMILES |
| --- | --- | --- |
| > 2.5 µM | > 2.5 µM | C[C@H](NC(=O)[C@@H](NC(=O)CNC(=O)[C@H](Cc1c[nH]cn1)NC(=O)[C@@H](N)Cc1c[nH]c2ccccc12)[C@@H](C)O)C(=O)N1CCC[C@H]1C(=O)N[C@@H](CC(=O)O)C(=O)N[C@@H](Cc1c[nH]c2ccccc12)C(=O)N[C@@H](Cc1ccccc1)C(=O)N[C@@H](Cc1ccccc1)C(=O)N[C@@H](CC(N)=O)C(=O)N[C@@H](Cc1ccc(O)cc1)C(=O)N[C@@H](Cc1ccc(O)cc1)C(=O)N[C@@H](Cc1c[nH]c2ccccc12)C(=O)O (H-WHGTAPDWFFNYYW-OH) |
| 15 µM | 2.4 µM | NC(=O)C[C@H](NC(=O)[C@H](Cc1ccccc1)NC(=O)[C@H](Cc1ccccc1)NC(=O)[C@@H](N)Cc1c[nH]c2ccccc12)C(=O)N[C@@H](Cc1ccc(O)cc1)C(=O)N[C@@H](Cc1ccc(O)cc1)C(=O)N[C@@H](Cc1c[nH]c2ccccc12)C(=O)O (H-WFFNYYW-OH) |
| 14 µM | 8.1 µM | CC(=O)N[C@H](Cc1c[nH]c2ccccc12)C(=O)N[C@@H](Cc1ccccc1)C(=O)N[C@@H](Cc1ccccc1)C(=O)N[C@@H](CC(N)=O)C(=O)N[C@@H](Cc1ccc(O)cc1)C(=O)N[C@@H](Cc1ccc(O)cc1)C(=O)N[C@@H](Cc1c[nH]c2ccccc12)C(=O)O |
| 13 µM | 9.5 µM | NC(=O)C[C@H](NC(=O)[C@H](Cc1ccccc1)NC(=O)[C@@H](N)C1c2ccccc2CCc2ccccc21)C(=O)N[C@@H](Cc1ccc(O)cc1)C(=O)N[C@@H](Cc1ccc(O)cc1)C(=O)N[C@@H](Cc1c[nH]c2ccccc12)C(=O)O (H-[X1]FNYYW-OH) |
| 4.3 µM | 1.9 µM | CC(=O)N[C@H](C(=O)N[C@@H](Cc1ccccc1)C(=O)N[C@@H](CC(N)=O)C(=O)N[C@@H](Cc1ccc(O)cc1)C(=O)N[C@@H](Cc1ccc(O)cc1)C(=O)N[C@@H](Cc1c[nH]c2ccccc12)C(=O)O)C1c2ccccc2CCc2ccccc21 (Ac-[X1]FNYYW-OH) |
| 7.6 µM | 0.25 µM | CC(=O)N[C@@H](Cc1c[nH]c2ccccc12)C(=O)N[C@@H](Cc1ccccc1)C(=O)N[C@@H](Cc1ccccc1)C(=O)N[C@@H](CC(N)=O)C(=O)N[C@@H](Cc1ccc(O)cc1)C(=O)N[C@@H](Cc1ccc(O)cc1)C(=O)N[C@@H](Cc1c[nH]c2ccccc12)C(=O)O |
